In ChEMBL document CHEMBL4680201, “Design, synthesis, and pharmacological evaluation of 4- or 6-phenyl-pyrimidine derivatives as novel and selective Janus kinase 3 inhibitors” (Eur J Med Chem, 2020):

What was measured:
[1] = molecular target: Tyrosine-protein kinase JAK2 (Homo sapiens, UniProt O60674); assay type: ADME
[2] = molecular target: Tyrosine-protein kinase JAK1 (Homo sapiens, UniProt P23458); assay: Inhibition of recombinant human GST-tagged JAK1 cytoplasmic domain (866 to 1154 residues) expressed in baculovirus expression system using TK-substrate-biotin preincubated for 5 mins followed by substrate addition and measured after 30 mins by HTRF assay
Tyrosine-protein kinase JAK1, sequence (P23458 whole entry, the tested form may be a part): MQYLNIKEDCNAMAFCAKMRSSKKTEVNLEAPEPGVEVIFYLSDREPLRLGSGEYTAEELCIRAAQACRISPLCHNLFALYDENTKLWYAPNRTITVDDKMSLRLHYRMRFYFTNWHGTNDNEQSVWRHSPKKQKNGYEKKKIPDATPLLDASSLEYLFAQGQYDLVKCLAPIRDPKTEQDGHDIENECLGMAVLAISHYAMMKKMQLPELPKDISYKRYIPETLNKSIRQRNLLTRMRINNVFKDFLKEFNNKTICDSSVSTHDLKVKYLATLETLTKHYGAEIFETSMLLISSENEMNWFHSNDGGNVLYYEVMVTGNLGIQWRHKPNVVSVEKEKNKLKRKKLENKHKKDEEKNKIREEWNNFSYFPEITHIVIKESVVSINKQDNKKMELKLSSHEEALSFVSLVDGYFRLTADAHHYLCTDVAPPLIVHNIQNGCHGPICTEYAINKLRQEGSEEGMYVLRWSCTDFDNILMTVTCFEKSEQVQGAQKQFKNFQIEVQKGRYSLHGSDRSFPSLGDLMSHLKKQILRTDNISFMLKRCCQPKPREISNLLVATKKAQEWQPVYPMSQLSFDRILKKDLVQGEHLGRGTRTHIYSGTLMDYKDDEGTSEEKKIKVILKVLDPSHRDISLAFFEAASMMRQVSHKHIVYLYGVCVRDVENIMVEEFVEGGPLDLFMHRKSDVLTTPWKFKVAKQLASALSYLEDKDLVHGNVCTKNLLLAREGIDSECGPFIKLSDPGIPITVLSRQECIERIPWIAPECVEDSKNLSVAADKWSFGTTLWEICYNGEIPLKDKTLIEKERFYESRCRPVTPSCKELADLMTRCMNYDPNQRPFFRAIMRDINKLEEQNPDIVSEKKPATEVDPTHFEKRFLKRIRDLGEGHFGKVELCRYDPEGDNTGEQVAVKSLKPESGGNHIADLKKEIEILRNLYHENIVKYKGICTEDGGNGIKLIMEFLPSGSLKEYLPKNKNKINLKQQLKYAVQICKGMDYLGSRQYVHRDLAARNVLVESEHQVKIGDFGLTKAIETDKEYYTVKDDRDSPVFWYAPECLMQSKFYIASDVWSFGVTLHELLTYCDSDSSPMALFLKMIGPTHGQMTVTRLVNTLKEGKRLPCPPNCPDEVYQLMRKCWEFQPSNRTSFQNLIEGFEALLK

[3] = molecular target: T1, Tyrosine-protein kinase JAK3 (Homo sapiens, UniProt P52333)
T1 sequence (P52333 whole entry): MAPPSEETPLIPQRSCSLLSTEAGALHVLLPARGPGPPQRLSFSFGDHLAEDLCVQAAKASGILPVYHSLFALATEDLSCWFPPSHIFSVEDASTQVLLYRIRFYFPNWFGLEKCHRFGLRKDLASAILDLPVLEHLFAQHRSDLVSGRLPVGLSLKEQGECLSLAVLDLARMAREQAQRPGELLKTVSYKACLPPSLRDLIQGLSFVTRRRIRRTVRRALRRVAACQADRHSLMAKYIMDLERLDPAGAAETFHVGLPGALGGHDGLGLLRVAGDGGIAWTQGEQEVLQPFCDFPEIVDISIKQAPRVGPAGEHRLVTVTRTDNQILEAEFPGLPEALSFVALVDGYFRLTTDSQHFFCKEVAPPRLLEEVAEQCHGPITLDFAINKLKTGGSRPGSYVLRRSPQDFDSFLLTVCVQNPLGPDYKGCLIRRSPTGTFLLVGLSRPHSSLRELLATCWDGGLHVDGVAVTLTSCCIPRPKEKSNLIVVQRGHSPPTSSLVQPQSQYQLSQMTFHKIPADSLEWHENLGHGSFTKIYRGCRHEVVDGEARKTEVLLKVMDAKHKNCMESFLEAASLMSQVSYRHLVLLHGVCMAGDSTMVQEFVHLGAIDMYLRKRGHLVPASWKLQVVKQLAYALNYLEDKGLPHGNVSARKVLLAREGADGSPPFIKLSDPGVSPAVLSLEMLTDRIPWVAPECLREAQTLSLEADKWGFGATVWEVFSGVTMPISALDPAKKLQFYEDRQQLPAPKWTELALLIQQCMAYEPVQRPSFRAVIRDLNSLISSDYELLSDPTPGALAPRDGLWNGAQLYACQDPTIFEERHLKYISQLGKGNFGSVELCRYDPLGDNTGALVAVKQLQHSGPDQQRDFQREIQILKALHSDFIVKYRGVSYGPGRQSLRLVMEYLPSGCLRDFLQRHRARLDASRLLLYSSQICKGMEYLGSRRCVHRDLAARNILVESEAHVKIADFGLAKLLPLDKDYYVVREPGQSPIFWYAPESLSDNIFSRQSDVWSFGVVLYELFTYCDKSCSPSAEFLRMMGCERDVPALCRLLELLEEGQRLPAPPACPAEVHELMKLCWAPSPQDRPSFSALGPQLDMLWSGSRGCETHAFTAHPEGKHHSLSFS

[4] = molecular target: Non-receptor tyrosine-protein kinase TYK2 (Homo sapiens, UniProt P29597); assay: Inhibition of recombinant human N-terminal GST-tagged TYK2 cytoplasmic domain (833 to 1187 residues) expressed in baculovirus expression system using TK-substrate-biotin preincubated for 5 mins followed by substrate addition and measured after 30 mins by HTRF assay
Non-receptor tyrosine-protein kinase TYK2, sequence (P29597 whole entry, the tested form may be a part): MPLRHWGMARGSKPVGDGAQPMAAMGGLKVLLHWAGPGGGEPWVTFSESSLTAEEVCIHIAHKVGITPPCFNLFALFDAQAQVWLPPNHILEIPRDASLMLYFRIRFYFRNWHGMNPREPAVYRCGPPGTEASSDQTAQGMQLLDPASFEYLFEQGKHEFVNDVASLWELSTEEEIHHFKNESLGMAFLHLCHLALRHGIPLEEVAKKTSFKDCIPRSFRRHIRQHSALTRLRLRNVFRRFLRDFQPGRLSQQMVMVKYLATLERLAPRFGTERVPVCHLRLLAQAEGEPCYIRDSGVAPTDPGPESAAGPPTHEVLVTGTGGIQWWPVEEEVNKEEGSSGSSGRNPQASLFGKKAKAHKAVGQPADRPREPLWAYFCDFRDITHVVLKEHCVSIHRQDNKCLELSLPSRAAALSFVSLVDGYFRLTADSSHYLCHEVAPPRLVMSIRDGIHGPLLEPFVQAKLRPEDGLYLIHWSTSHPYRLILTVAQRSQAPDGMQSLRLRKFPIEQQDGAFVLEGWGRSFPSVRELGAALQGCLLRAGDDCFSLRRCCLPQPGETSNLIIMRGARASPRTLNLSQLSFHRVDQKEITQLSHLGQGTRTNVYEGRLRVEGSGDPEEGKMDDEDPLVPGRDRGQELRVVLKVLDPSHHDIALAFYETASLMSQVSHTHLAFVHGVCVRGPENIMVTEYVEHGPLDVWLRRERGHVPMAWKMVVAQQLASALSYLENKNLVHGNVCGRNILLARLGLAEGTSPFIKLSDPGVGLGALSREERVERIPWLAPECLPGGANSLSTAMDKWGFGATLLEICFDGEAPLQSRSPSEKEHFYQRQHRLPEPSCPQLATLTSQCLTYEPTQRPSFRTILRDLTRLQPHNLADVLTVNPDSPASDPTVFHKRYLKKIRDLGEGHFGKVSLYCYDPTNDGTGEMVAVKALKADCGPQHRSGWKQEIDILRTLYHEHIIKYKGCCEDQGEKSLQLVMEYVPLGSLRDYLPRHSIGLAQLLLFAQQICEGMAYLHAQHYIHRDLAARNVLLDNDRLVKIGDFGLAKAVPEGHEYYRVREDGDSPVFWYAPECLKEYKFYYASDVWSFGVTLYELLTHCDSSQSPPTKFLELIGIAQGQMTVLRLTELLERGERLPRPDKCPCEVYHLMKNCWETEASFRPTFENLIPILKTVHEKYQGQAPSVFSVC

Tyrosine-protein kinase JAK2, sequence (O60674 whole entry, the tested form may be a part): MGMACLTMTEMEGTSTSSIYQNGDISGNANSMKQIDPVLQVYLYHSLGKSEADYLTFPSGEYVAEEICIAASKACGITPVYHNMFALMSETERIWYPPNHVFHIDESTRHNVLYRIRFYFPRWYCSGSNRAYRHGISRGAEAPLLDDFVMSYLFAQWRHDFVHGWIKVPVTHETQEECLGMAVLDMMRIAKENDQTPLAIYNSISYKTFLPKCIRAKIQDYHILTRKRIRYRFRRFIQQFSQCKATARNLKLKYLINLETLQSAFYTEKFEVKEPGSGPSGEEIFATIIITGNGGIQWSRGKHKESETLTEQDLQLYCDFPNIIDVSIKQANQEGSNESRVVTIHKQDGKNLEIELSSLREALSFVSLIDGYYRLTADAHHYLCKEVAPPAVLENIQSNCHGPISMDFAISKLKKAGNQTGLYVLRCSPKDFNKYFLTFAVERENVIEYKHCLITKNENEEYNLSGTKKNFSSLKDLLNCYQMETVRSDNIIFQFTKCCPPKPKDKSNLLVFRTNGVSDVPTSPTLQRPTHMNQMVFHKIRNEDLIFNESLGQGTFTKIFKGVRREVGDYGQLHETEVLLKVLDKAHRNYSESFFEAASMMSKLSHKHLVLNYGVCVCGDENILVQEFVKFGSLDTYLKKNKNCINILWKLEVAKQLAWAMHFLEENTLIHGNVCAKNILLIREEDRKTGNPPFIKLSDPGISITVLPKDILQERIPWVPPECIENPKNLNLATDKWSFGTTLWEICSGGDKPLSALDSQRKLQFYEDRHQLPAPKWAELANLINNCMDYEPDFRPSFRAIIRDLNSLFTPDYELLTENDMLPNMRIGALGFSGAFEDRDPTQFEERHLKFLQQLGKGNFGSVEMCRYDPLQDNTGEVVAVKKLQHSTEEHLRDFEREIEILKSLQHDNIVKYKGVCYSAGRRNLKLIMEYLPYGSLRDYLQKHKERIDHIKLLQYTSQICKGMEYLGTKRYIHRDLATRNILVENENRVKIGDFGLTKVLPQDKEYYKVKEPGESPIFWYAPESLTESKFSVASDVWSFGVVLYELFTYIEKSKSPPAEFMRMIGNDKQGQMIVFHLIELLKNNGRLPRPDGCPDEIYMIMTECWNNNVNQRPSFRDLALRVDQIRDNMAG

Compound | IC50 [1] [nM] | IC50 [2] [nM] | IC50 [3] [nM] | IC50 [4] [nM]
COCCn1cc(Nc2cc(-c3cccc(NC(=O)CC#N)c3)ncn2)cn1 | 587 | 322 | 65 | 2260
C/C=C/C(=O)Nc1ccc(-c2ccnc(Nc3cnn(CCOC)c3)n2)cc1 | 1980 | 1440 | 14 | > 3000
N#CCC(=O)Nc1cccc(-c2ccnc(Nc3ccc(N4CCOCC4)cc3)n2)c1 | 216 | 2230 | 152 | > 3000
C=CC(=O)Nc1cccc(-c2cc(Nc3cnn(CCN(C)C)c3)ncn2)c1 | > 3000 | 731 | 309 | –
N#CCC(=O)Nc1cccc(-c2cc(Nc3ccc(N4CCOCC4)cc3)ncn2)c1 | 734 | 1860 | 170 | –
C=CC(=O)Nc1cccc(-c2ccnc(Nc3ccc(N4CCOCC4)cc3)n2)c1 | 1800 | 2120 | 30 | 2440
C=CC(=O)Nc1cccc(-c2cc(Nc3cnn(C)c3)ncn2)c1 | 2240 | 657 | 303 | –
C=CC(=O)Nc1ccc(-c2cc(Nc3cnn(CCOC)c3)ncn2)cc1 | > 3000 | 1660 | 67 | > 3000
C/C=C/C(=O)Nc1ccc(-c2cc(Nc3cnn(CCOC)c3)ncn2)cc1 | – | 2760 | 76 | –
C=CC(=O)Nc1cccc(-c2cc(Nc3cnn(CCOC)c3)ncn2)c1 | 2850 | 568 | 101 | –
C=CC(=O)Nc1cccc(-c2cc(Nc3cnn(CCO)c3)ncn2)c1 | 2590 | – | 599 | –
C=CC(=O)Nc1ccc(-c2cc(Nc3ccc(N4CCOCC4)cc3)ncn2)cc1 | 1570 | 961 | 112 | –
COCCn1cc(Nc2cc(-c3ccc(NC(=O)CC#N)cc3)ncn2)cn1 | 1460 | 2680 | 86 | 1870
Cn1cc(Nc2cc(-c3cccc(NC(=O)CC#N)c3)ncn2)cn1 | – | 854 | 145 | –
Cn1cc(Nc2cc(-c3cccc(NC(=O)CNC(=O)CC#N)c3)ncn2)cn1 | 69 | 89 | 95 | –
N#CCC(=O)Nc1ccc(-c2ccnc(Nc3ccc(N4CCOCC4)cc3)n2)cc1 | – | 433 | – | > 3000
C/C=C/C(=O)Nc1ccc(-c2cc(Nc3ccc(N4CCOCC4)cc3)ncn2)cc1 | 2150 | 321 | 99 | –
C/C=C/C(=O)Nc1cccc(-c2cc(Nc3cnn(CC(=O)NC)c3)ncn2)c1 | 1110 | – | 92 | –
N#CCC(=O)Nc1cccc(-c2cc(Nc3cnn(CCO)c3)ncn2)c1 | 1140 | 1540 | 243 | –
C/C=C/C(=O)Nc1cccc(-c2cc(Nc3cnn(CCO)c3)ncn2)c1 | 2810 | 2440 | 221 | –
N#CCC(=O)NCC(=O)Nc1cccc(-c2cc(Nc3ccc(N4CCOCC4)cc3)ncn2)c1 | 309 | 1430 | 253 | –
C/C=C/C(=O)Nc1cccc(-c2cc(Nc3ccc(N4CCOCC4)cc3)ncn2)c1 | 2130 | 2880 | – | > 3000
N#CCC(=O)Nc1ccc(-c2cc(Nc3ccc(N4CCOCC4)cc3)ncn2)cc1 | – | 528 | 78 | –
C/C=C/C(=O)Nc1cccc(-c2ccnc(Nc3ccc(N4CCOCC4)cc3)n2)c1 | 2790 | – | 33 | 2650

The remaining molecules from weak to strong by IC50 [3], led by results:

IC50 [1] [nM] | IC50 [2] [nM] | IC50 [3] [nM] | IC50 [4] [nM] | Compound
2760 | 1520 | 567 | – | C/C=C/C(=O)Nc1cccc(-c2cc(Nc3cnn(C)c3)ncn2)c1
– | 586 | 375 | – | C/C=C/C(=O)NCC(=O)Nc1cccc(-c2cc(Nc3ccc(N4CCOCC4)cc3)ncn2)c1
2040 | 1110 | 183 | – | C=CC(=O)Nc1cccc(-c2cc(Nc3ccc(N4CCOCC4)cc3)ncn2)c1
– | 840 | 138 | – | C=CC(=O)Nc1cccc(-c2cc(Nc3cnn(CC(=O)NC)c3)ncn2)c1
2730 | > 3000 | 127 | – | CNC(=O)Cn1cc(Nc2cc(-c3cccc(NC(=O)CNC(=O)CC#N)c3)ncn2)cn1
886 | 45 | 108 | – | C/C=C/C(=O)NCC(=O)Nc1cccc(-c2cc(Nc3cnn(CCOC)c3)ncn2)c1
> 3000 | 354 | 103 | – | C=CC(=O)NCC(=O)Nc1cccc(-c2cc(Nc3ccc(N4CCOCC4)cc3)ncn2)c1
1890 | 899 | 67 | – | C/C=C/C(=O)Nc1cccc(-c2cc(Nc3cnn(CCN(C)C)c3)ncn2)c1
1540 | 56 | 66 | – | C=CC(=O)NCC(=O)Nc1cccc(-c2cc(Nc3cnn(CCOC)c3)ncn2)c1
1290 | 1100 | 55 | 2870 | C=CC(=O)Nc1cccc(-c2ccnc(Nc3cnn(CCOC)c3)n2)c1
2580 | 1290 | 29 | > 3000 | C/C=C/C(=O)Nc1cccc(-c2cc(Nc3cnn(CCOC)c3)ncn2)c1
– | 183 | 24 | 2500 | COCCn1cc(Nc2nccc(-c3ccc(NC(=O)CC#N)cc3)n2)cn1
